Data reported in patent US9809623B2, “α4β7 peptide monomer and dimer antagonists” (Protagonist Therapeutics, Inc., priority 2014, dated 2017).
Like-named read-outs stand apart in the source and are kept apart here. Numbered stars: 1 amine (or outer) side, 2 acyl side, 3 side chain; on linkers, the order of the positions; unused ones are H or OH. Bridge positions count the residues as written; N and C are the ends. Square brackets hold non-standard residues; d marks the D form. Peptide text beside a SMILES is read from it. I, II: the chains in the order shown. Phe(4-COOH) = N[C@@H](Cc1ccc(C(=O)O)cc1)C(=O)O; Phe(4-tBu) = CC(C)(C)c1ccc(C[C@H](N)C(=O)O)cc1; Diglycolyl = O=C(COCC(=O)[*:2])[*:1]; NMeR = CN[C@@H](CCCNC(=N)N)C(=O)O; β3hE = N[C@@H](CCC(=O)O)CC(=O)O; NMeK = CN[C@@H](CCCCN)C(=O)O; Pen = CC(C)(S)[C@H](N)C(=O)O

Key:
rh integrin α4β7 = target: T1, rh integrin α4β7 (Homo sapiens, UniProt P13612+P26010); assay: α4β7-MAdCAM Competition ELISA; type: binding
T1 construct: purchased R&D Systems 5397-A30
T1 sequence (P13612 34-977 limits assumed): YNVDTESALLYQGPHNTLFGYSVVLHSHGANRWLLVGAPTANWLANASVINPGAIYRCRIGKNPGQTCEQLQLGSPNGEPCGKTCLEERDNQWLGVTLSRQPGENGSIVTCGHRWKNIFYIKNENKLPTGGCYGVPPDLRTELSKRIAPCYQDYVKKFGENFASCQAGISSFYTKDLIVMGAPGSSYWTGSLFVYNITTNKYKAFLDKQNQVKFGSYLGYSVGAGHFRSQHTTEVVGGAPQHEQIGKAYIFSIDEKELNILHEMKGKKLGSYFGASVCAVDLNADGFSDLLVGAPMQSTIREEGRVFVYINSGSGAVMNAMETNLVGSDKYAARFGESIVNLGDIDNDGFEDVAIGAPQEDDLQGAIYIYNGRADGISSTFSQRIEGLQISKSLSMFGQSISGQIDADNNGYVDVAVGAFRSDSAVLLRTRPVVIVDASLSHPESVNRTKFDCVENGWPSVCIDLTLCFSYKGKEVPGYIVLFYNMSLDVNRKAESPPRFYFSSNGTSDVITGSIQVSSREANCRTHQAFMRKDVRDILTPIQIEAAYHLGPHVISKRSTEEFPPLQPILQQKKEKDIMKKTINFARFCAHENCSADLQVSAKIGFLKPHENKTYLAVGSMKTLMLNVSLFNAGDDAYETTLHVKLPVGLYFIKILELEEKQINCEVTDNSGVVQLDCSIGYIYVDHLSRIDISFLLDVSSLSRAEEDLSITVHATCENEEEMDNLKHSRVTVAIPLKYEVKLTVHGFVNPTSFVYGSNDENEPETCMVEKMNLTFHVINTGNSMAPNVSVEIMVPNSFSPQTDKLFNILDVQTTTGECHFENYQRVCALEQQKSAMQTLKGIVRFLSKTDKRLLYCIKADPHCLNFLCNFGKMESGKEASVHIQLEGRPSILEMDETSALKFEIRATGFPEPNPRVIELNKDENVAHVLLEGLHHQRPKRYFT
T1 sequence (P26010 20-723 limits assumed): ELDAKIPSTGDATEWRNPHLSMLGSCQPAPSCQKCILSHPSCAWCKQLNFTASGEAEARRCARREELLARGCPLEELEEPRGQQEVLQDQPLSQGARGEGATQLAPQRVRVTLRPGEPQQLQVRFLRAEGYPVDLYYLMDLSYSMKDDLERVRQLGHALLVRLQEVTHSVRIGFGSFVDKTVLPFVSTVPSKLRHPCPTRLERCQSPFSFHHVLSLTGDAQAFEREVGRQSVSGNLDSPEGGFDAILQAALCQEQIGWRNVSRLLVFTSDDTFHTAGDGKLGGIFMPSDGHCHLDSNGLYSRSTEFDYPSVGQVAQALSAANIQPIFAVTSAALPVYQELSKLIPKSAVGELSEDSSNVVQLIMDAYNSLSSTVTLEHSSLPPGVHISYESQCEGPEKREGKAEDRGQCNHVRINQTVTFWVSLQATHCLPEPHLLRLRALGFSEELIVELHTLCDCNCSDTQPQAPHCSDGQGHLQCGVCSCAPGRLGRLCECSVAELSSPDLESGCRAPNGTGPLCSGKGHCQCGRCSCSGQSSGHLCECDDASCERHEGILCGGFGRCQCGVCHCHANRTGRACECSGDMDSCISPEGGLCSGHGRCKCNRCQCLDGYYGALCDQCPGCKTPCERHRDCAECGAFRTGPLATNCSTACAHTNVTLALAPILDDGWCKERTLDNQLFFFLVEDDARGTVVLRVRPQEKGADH
In short: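 Competition read-out was A450 after anti-human IgG1-HRP and TMB detection of bound recombinant human MAdCAM-1 (10 nM final). Peptides were serially diluted 3-fold from a final 10 μM and equilibrated 1 h at room temperature on nickel-captured α4β7 (800 ng/well). The buffer was Tris pH 7.6 with 1 mM Mn2+ or Mg2+.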

α4β1 = target: T2, α4β1 (Homo sapiens, UniProt P05556+P13612, DEL729-798); assay: α4β1-VCAM Competition ELISA; type: binding
T2 construct: purchased R&D Systems 5668-A4
T2 sequence (P13612 34-977 limits assumed, stated change not applied): as the sequence (P13612 34-977 limits assumed) above
T2 sequence (P05556 21-728 limits assumed, stated change not applied): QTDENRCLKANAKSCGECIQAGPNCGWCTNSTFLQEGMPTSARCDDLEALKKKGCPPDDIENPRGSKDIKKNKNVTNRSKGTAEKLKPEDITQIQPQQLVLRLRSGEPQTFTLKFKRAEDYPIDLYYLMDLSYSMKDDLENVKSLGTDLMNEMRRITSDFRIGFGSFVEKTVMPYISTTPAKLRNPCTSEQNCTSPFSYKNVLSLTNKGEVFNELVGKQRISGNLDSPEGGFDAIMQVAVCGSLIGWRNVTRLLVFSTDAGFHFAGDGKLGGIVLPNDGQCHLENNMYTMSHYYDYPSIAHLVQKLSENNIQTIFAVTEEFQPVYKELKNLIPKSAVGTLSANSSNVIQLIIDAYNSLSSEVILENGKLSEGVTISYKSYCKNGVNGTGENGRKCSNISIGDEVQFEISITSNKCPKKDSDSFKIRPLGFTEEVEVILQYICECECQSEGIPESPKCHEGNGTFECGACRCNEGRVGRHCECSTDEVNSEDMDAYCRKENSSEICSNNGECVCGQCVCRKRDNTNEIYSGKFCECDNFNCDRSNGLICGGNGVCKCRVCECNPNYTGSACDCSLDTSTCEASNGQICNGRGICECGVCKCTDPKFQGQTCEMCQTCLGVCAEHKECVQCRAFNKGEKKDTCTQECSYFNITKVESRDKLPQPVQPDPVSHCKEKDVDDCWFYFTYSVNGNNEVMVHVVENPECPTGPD
In short: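 ELISA plates were coated with VCAM-1 Fc at 400 ng/well. Peptide dilutions (highest final 100 μM) and 60 nM α4β1 were incubated 2 h at 37 °C in pH 7.6 Tris buffer containing 1 mM Mn2+ or Mg2+. Integrin retained on the plate was detected by 9F10 antibody, then HRP secondary, with TMB absorbance at 450 nm.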

α4β7 = α4β7 (Homo sapiens, UniProt P13612+P26010); assay: α4β7-MAdCAM Cell Adhesion Assay (RPMI 8866 human cells); type: cell-based; parameters: host or cells: RPMI 8866 human B lymphoblastoid cells
Sequence of α4β7 (P13612 34-1032): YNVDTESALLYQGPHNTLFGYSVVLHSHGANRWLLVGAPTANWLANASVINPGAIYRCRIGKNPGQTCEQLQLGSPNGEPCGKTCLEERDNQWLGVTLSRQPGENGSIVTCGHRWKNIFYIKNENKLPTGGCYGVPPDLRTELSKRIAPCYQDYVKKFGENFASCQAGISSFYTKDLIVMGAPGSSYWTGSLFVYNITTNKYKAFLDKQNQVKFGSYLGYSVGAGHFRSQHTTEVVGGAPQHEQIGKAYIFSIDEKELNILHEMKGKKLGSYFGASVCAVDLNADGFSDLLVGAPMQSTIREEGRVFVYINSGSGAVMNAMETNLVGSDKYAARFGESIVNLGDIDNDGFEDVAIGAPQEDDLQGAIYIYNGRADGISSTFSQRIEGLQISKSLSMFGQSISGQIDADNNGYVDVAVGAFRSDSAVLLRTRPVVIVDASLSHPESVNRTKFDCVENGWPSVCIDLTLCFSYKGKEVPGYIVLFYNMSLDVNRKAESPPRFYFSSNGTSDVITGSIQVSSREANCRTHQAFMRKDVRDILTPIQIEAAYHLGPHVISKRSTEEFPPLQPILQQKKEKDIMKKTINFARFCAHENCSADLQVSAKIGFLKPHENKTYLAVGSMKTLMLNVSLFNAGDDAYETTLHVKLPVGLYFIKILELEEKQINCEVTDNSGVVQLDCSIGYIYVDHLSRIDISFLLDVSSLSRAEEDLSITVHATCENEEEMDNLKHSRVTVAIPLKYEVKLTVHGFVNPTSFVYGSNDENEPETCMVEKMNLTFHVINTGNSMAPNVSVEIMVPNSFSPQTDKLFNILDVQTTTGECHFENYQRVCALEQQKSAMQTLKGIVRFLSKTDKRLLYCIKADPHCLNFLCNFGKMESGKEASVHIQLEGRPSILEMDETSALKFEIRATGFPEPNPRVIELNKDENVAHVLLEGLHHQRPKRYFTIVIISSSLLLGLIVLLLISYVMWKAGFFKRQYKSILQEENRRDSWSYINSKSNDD
Sequence of α4β7 (P26010 20-798): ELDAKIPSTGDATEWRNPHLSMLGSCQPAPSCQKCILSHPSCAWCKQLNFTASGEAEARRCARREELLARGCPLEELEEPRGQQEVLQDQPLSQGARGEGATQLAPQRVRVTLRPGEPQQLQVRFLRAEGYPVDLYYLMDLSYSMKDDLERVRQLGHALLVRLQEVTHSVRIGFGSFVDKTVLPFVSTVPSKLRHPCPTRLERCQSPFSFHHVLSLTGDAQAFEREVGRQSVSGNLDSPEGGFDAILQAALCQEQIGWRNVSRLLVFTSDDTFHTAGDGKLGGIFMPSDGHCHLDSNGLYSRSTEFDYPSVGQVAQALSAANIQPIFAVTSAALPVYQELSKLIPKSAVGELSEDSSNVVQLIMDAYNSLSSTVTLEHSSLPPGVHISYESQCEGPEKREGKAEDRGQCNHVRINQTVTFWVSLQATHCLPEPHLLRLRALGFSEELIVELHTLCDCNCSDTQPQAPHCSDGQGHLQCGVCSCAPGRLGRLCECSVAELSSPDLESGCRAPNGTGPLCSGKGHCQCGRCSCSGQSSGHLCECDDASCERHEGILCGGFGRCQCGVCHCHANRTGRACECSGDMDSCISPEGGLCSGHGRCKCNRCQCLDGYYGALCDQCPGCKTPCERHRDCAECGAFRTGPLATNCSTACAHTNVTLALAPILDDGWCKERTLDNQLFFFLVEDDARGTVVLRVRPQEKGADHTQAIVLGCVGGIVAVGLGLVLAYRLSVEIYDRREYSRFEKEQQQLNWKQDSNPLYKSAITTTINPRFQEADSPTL
In short: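 Adhesion read-out: MTT absorbance at 570 nm minus no-cell wells, after three washes. Plates coated with rh MAdCAM-1/Fc received peptide dilutions plus 200,000 RPMI 8866 cells in Mn2+ (1 mM)-supplemented DMEM, 0.1% BSA, HEPES pH 7, incubated 30-45 min, 37 °C.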

[1] = Table 4-B, read-out: ELISA α4β7 IC50
[2] = Table 4-B, read-out: ELISA_α4β1 IC50
[3] = Table 4-B, read-out: Cell Adhesion α4β7 IC50
[4] = Table 3-B, Potency (α4β7), range classes, read-out: α4β7 ELISA IC50
[5] = Table 3-B, Selectivity (α4β1), range classes, read-out: α4β1 ELISA IC50
[6] = Table 3-B, Potency (α4β7), range classes, read-out: α4β7 cell (Hu) IC50

| SMILES | IC50 (rh integrin α4β7; [1]) | IC50 (α4β1; [2]) | IC50 (α4β7; [3]) | IC50 (rh integrin α4β7; [4]) | IC50 (α4β1; [5]) | IC50 (α4β7; [6]) |
| --- | --- | --- | --- | --- | --- | --- |
| CC(=O)N[C@@H]1C(=O)N(C)[C@@H](CCCNC(=N)N)C(=O)N[C@@H](CO)C(=O)N[C@@H](CC(=O)O)C(=O)N[C@@H]([C@@H](C)O)C(=O)N[C@@H](CC(C)C)C(=O)N[C@H](C(=O)N[C@@H](Cc2c[nH]c3ccccc23)C(=O)N[C@@H](CCC(=O)O)CC(=O)N[C@H](CCCCNC(=O)COCC(=O)NCCCC[C@@H](NC(=O)C[C@H](CCC(=O)O)NC(=O)[C@H](Cc2c[nH]c3ccccc23)NC(=O)[C@H]2NC(=O)[C@H](CC(C)C)NC(=O)[C@H]([C@@H](C)O)NC(=O)[C@H](CC(=O)O)NC(=O)[C@H](CO)NC(=O)[C@H](CCCNC(=N)N)N(C)C(=O)[C@@H](NC(C)=O)C(C)(C)SSC2(C)C)C(N)=O)C(N)=O)C(C)(C)SSC1(C)C [compound 213, [Ac-Pen-(N-Me-Arg)-Ser-Asp-Thr-Leu-Pen-Trp-(β-homoGlu)-(D-Lys)-NH2]2-DIG] (I: Ac-[Pen][NMeR]SDTL[Pen]W[β3hE][dK]-NH2 / II: Ac-[Pen][NMeR]SDTL[Pen]W[β3hE][dK]-NH2; disulfide I:1-I:7, II:1-II:7; linker I:10-II:10 via Diglycolyl) | 4.7 nM | 539 nM | 12 nM |  |  |  |
| CC(=O)N[C@H]1CSSC[C@@H](C(=O)NCC(=O)N[C@@H](CCC(=O)O)C(=O)N[C@@H](CCCCNC(=O)COCC(=O)NCCCC[C@H](NC(=O)[C@H](CCC(=O)O)NC(=O)CNC(=O)[C@@H]2CSSC[C@H](NC(C)=O)C(=O)N(C)[C@@H](CCCNC(=N)N)C(=O)N[C@@H](CO)C(=O)N[C@@H](CC(=O)O)C(=O)N[C@@H]([C@@H](C)O)C(=O)N[C@@H](CC(C)C)C(=O)N2)C(=O)O)C(=O)O)NC(=O)[C@H](CC(C)C)NC(=O)[C@H]([C@@H](C)O)NC(=O)[C@H](CC(=O)O)NC(=O)[C@H](CO)NC(=O)[C@H](CCCNC(=N)N)N(C)C1=O [compound 201, (Ac-C-N-Me-R-S-D-T-L-C-G-E-K-OH)2-DIG] (I: Ac-C[NMeR]SDTLCGEK-OH / II: Ac-C[NMeR]SDTLCGEK-OH; disulfide I:1-I:7, II:1-II:7 (inferred); linker I:10-II:10 via Diglycolyl (inferred)) | 1 nM | 1240 nM | 28 nM |  |  |  |
| CC(=O)N[C@@H]1C(=O)N(C)[C@@H](CCCNC(=N)N)C(=O)N[C@@H](CO)C(=O)N[C@@H](CC(=O)O)C(=O)N[C@@H]([C@@H](C)O)C(=O)N[C@@H](CC(C)C)C(=O)N[C@H](C(=O)N[C@@H](Cc2c[nH]c3ccccc23)C(=O)N[C@H](CCC(=O)O)C(=O)N[C@H](CCCCNC(=O)COCC(=O)NCCCC[C@@H](NC(=O)[C@@H](CCC(=O)O)NC(=O)[C@H](Cc2c[nH]c3ccccc23)NC(=O)[C@H]2NC(=O)[C@H](CC(C)C)NC(=O)[C@H]([C@@H](C)O)NC(=O)[C@H](CC(=O)O)NC(=O)[C@H](CO)NC(=O)[C@H](CCCNC(=N)N)N(C)C(=O)[C@@H](NC(C)=O)C(C)(C)SSC2(C)C)C(N)=O)C(N)=O)C(C)(C)SSC1(C)C [compound 211, (Ac-Pen-N-Me-R-S-D-T-L-Pen-W-e-k-NH2)2-DIG] (I: Ac-[Pen][NMeR]SDTL[Pen]W[dE][dK]-NH2 / II: Ac-[Pen][NMeR]SDTL[Pen]W[dE][dK]-NH2; disulfide I:1-I:7, II:1-II:7 (inferred); linker I:10-II:10 via Diglycolyl (inferred)) | 3 nM | 302 nM | 22 nM |  |  |  |
| CC(=O)N[C@@H]1C(=O)N(C)[C@@H](CCCNC(=N)N)C(=O)N[C@@H](CO)C(=O)N[C@@H](CC(=O)O)C(=O)N[C@@H]([C@@H](C)O)C(=O)N[C@@H](CC(C)C)C(=O)N[C@H](C(=O)N[C@@H](Cc2ccc(C(C)(C)C)cc2)C(=O)N[C@@H](CCC(=O)O)CC(=O)N[C@H](CCCCNC(=O)COCC(=O)NCCCC[C@@H](NC(=O)C[C@H](CCC(=O)O)NC(=O)[C@H](Cc2ccc(C(C)(C)C)cc2)NC(=O)[C@H]2NC(=O)[C@H](CC(C)C)NC(=O)[C@H]([C@@H](C)O)NC(=O)[C@H](CC(=O)O)NC(=O)[C@H](CO)NC(=O)[C@H](CCCNC(=N)N)N(C)C(=O)[C@@H](NC(C)=O)C(C)(C)SSC2(C)C)C(N)=O)C(N)=O)C(C)(C)SSC1(C)C [compound 218, [Ac-Pen-(N-Me-Arg)-Ser-Asp-Thr-Leu-Pen-Phe(4-tBu)-(β-homoGlu)-(D-Lys)-NH2]2-DIG] (I: Ac-[Pen][NMeR]SDTL[Pen][Phe(4-tBu)][β3hE][dK]-NH2 / II: Ac-[Pen][NMeR]SDTL[Pen][Phe(4-tBu)][β3hE][dK]-NH2; disulfide I:1-I:7, II:1-II:7; linker I:10-II:10 via Diglycolyl) | 2.8 nM | 490 nM | 0.78 nM |  |  |  |
| CC(=O)N[C@@H]1C(=O)N(C)[C@@H](CCCNC(=N)N)C(=O)N[C@@H](CO)C(=O)N[C@@H](CC(=O)O)C(=O)N[C@@H]([C@@H](C)O)C(=O)N[C@@H](CC(C)C)C(=O)N[C@H](C(=O)N[C@@H](Cc2ccc(C(C)(C)C)cc2)C(=O)N[C@@H](CCC(=O)O)CC(=O)N[C@H](CCCCN)C(N)=O)C(C)(C)SSC1(C)C [compound 153] (Ac-[Pen][NMeR]SDTL[Pen][Phe(4-tBu)][β3hE][dK]-NH2; disulfide 1-7) |  |  |  | 10 to 25 nM | 1000 to 10000 nM | 10 to 25 nM |
| CC(=O)N[C@H]1CSSC(C)(C)[C@@H](C(=O)N[C@H](CCCCN)C(N)=O)NC(=O)[C@H](CC(C)C)NC(=O)[C@H]([C@@H](C)O)NC(=O)[C@H](CC(=O)O)NC(=O)[C@H](CO)NC(=O)[C@H](CCCNC(=N)N)N(C)C1=O [compound 202, Ac-C-N-Me-R-S-D-T-L-Pen-k-NH2] (Ac-C[NMeR]SDTL[Pen][dK]-NH2; disulfide 1-7) | 87 nM | 1620 nM | 11000 nM |  |  |  |
| CC(=O)N[C@H]1CSSC[C@@H](C(=O)NCC(=O)N[C@@H](CCC(=O)O)C(=O)N[C@@H](CCCCN)C(N)=O)NC(=O)[C@H](CC(C)C)NC(=O)[C@H]([C@@H](C)O)NC(=O)[C@H](CC(=O)O)NC(=O)[C@H](CO)NC(=O)[C@H](CCCNC(=N)N)NC1=O [compound 196, Ac-C-R-S-D-T-L-C-G-E-K-NH2] (Ac-CRSDTLCGEK-NH2; disulfide 1-7) | 87 nM | 4810 nM | 6660 nM |  |  |  |
| CC(=O)N[C@@H]1C(=O)N(C)[C@@H](CCCNC(=N)N)C(=O)N[C@@H](CO)C(=O)N[C@@H](CC(=O)O)C(=O)N[C@@H]([C@@H](C)O)C(=O)N[C@@H](CC(C)C)C(=O)N[C@H](C(=O)N[C@@H](Cc2ccc(C(=O)O)cc2)C(=O)N[C@@H](CCC(=O)O)CC(=O)N(C)[C@@H](CCCCNC(=O)COCC(=O)NCCCC[C@@H](C(N)=O)N(C)C(=O)C[C@H](CCC(=O)O)NC(=O)[C@H](Cc2ccc(C(=O)O)cc2)NC(=O)[C@H]2NC(=O)[C@H](CC(C)C)NC(=O)[C@H]([C@@H](C)O)NC(=O)[C@H](CC(=O)O)NC(=O)[C@H](CO)NC(=O)[C@H](CCCNC(=N)N)N(C)C(=O)[C@@H](NC(C)=O)C(C)(C)SSC2(C)C)C(N)=O)C(C)(C)SSC1(C)C [compound 148] (I: Ac-[Pen][NMeR]SDTL[Pen][Phe(4-COOH)][β3hE][NMeK]-NH2 / II: Ac-[Pen][NMeR]SDTL[Pen][Phe(4-COOH)][β3hE][NMeK]-NH2; disulfide I:1-I:7, II:1-II:7; linker I:10-II:10 via Diglycolyl) |  |  |  | < 10 nM | 100 to 500 nM | < 10 nM |
